Values quoted from earlier work in patent US7795231B2, “Concentrated aqueous azalide formulations” (Insite Vision Incorporated, priority 2007, dated 2010).
Counter-ions that a name gives are not always drawn.

water solubility (in words): good water solubility
Compound: CC[C@H]1OC(=O)[C@H](C)[C@@H](O[C@H]2C[C@@](C)(OC)[C@@H](O)[C@H](C)O2)[C@H](C)[C@@H](O[C@@H]2O[C@H](C)C[C@H](N(C)C)[C@H]2O)[C@](C)(O)C[C@@H](C)CN(C)[C@H](C)[C@@H](O)[C@]1(C)O [azithromycin dihydrochloride]
